Like-named read-outs stand apart in the source and are kept apart here.
Legend:
PC-3 cells [1] = assay: XTT cell proliferation assay, cytotoxicity on PC-3 cells with and without electroporation; details: for cytotoxicity enhancement ratio: IC50 no electroporation vs with electroporation; for cytotoxic enhancement, rank order / cell susceptibility with electroporation: combined with electroporation
Method: PC-3 cells (ATCC CRL-1435, a prostate cancer cell line) were grown in RPMI-1640 supplemented with 15% fetal calf serum (FCS) and 1% L-glutamine in 5% CO2 at 37° C. Cells in the exponential phase of growth were harvested by trypsinization and their viability was determined by trypan blue exclusion. Cell were suspended in culture medium at 2×10^5 cells/ml and seeded in the wells of a 96-well plate at a final concentration of 4×10^4 cells per well. Cells were pulsed using appropriate needle array electrodes connected to a square wave pulse generator. The needle array was inserted in the well of the 96 well microplate and pulsed using the following parameters:
A cell survival curve was produced for the different electric fields.
Methods, 142:2, 257-265, 1991). The XTT assay is based on a spectrophotometric assay of the metabolic conversion of tetrazolium salts to formazan; living cells convert XTT to formazan, which can be measured spectrophotometrically. Results were expresses as a comparison of the lC50 (concentration of drug inhibiting 50% of the cells) of each agent in the presence and absence of clectroporation, and are presented in Table 1.

PC-3 cells [2] = assay: PC-3 tumors in nude mice, intratumoral bleomycin with or without electroporation; type: in vivo, nude mice; human prostate tumor (PC-3) cells; details: for death: deaths due to infighting
Method: In order to examine the effect of electroporation on the effectiveness of chemotherapeutic agents in vivo, a nude mouse model was utilized. For these experiments, 0.1 ml of a matrigel solution (a serum-free solution consisting of one part matrigel diluted in four parts RPMI-1640) containing 5×10^6 PC-3 cells was implanted on the flank of nude mice. The tumors were allowed to grow until a tumor volume of […]. The mice were weighed and randomly divided into six groups as follows:
Group 1: no chemotherapeutic agent, no electroporation
Group 2: 0.5 unit Bleomycin, no electroporation
Group 3: 0.5 units Bleomycin, 4 needle array, 0.65 cm, 942V, 4×100 μs pulses
Group 4: 0.5 units Bleomycin, 6 needle array, 1.00 cm, 1130 V, 6×100 μs pulses
Group 5: 0.5 units Bleomycin, 6 needle array, 0.50 cm, 559 V, 6×100 μs pulses
Group 6: 0.5 units Bleomycin, 4 needle array, 0.87 cm, 1500V, 4×100 μs pulses
In those animals which received Bleomycin, the chemotherapeutic agent (0.5 unit) was dissolved in 0.01 ml saline and injected intratumorally by "fanning." After 10±1 minutes, a Genetronics Medpulser™ device was used to pulse the tumors with a set of either 6 or 4-needle array electrodes. All treatments were given as a single set of pulses.
The animals were monitored daily for morality or any sign of disease for 67 days (see FIG. 24, where D=drug treatment (Bleomycin) and e=electroporation). Tumor size was measured and tumor volume calculated using the formula: […]
wherein a, b, and c are the length, width, and depth of the tumor in mm.
Following the monitoring period, the tumors were harvested and sections were prepared for histological analyses. Animals were classified as having progressive disease (appearance of new lesions not previously identified or having an estimated increase of 25% or more in existent lesion size), a complete response (complete disappearance of all known disease, a partial response (wherein the tumor size decrease 50% or more). Deaths were noted to be due to infighting of mice in the same cage.

prostate = assay: Intraprostatic injection of Bleomycin with electroporation, tolerability, ECG and histology in dog; type: in vivo, male beagle dog
Method: In order to evaluate the technical feasibility of intraprostatic injection of Bleomycin, the following study was performed. A male beagle dog with a prostate size of >2 cm in diameter was anesthetized, A midline laparotomy was performed, and the bladder and gut reflected to visualize the prostate gland. Under direct visual guidance, Bleomycin was injected into each of six sextants (base, mid, and apex of both the left and right sides) of the prostate. Four electroporation needles were then inserted transperineally under visual guidance to administer the electroporation cycles. […] The ECG was recorded during each of the electroporation pulse sequences. The first two sequences were conducted with the needles inserted into the prostate, through the perineum. Four additional sequences were recorded with the needles inserted directly into the muscles of the left hindlimb. Each of the pulse sequences produced stimulation artifacts on the recording of the ECG.
The prostate was then excised and processed for histological evaluation.

[3] = partition coefficient between octanol and water; cited from earlier work
tumor cell = details: cited from earlier work
[4] = during electroporation pulse sequences

Question: With `CO[C@@]12[C@H](COC(N)=O)C3=C(C(=O)C(C)=C(N)C3=O)N1C[C@@H]1N[C@@H]12` [Mitomycin C] as the compound, how does the IC50 (PC-3 cells [1]; Homo sapiens, PC-3, 20 h, read-out: IC50 no electroporation) read?
Answer: 80 µM

Question: What about the IC50 (PC-3 cells [1]; Homo sapiens, PC-3, 20 h, read-out: IC50 with electroporation) of the same compound?
Answer: 60 µM

Question: What about the cytotoxicity enhancement ratio (PC-3 cells [1]) of the same compound?
Answer: 1.33

Question: And the “cytotoxic enhancement, rank order” value (PC-3 cells [1])?
Answer: followed by Cisplatin and Mitomycin C

Question: What does the source list for Bleomycin?
Answer: cytotoxicity enhancement ratio (PC-3 cells [1]): 1000; cell susceptibility with electroporation (PC-3 cells [1]): electroporation enhances cell susceptibility; cytotoxic enhancement, rank order (PC-3 cells [1]): highest cytotoxic enhancement; Progressive disease (PC-3 cells [2]; Group 2: 0.5 unit Bleomycin, no electroporation, 6 animals, 67 days): 100%; partial response (PC-3 cells [2]; Group 3: 0.5 units Bleomycin, 4 needle array, 0.65 cm, 942V, 4×100 μs pulses, 1 of 7 animals, 67 days): 14%; death (PC-3 cells [2]; Group 3: 0.5 units Bleomycin, 4 needle array, 0.65 cm, 942V, 4×100 μs pulses, 1 of 7 animals): 14%; complete response (PC-3 cells [2]; Group 3: 0.5 units Bleomycin, 4 needle array, 0.65 cm, 942V, 4×100 μs pulses, 5 of 7 animals, 67 days): 52%; partial response (PC-3 cells [2]; Group 4: 0.5 units Bleomycin, 6 needle array, 1.00 cm, 1130 V, 6×100 μs pulses, 1 of 7 animals, 67 days): 14%; death (PC-3 cells [2]; Group 4: 0.5 units Bleomycin, 6 needle array, 1.00 cm, 1130 V, 6×100 μs pulses, 1 of 7 animals): 14%; complete response (PC-3 cells [2]; Group 4: 0.5 units Bleomycin, 6 needle array, 1.00 cm, 1130 V, 6×100 μs pulses, 5 of 7 animals, 67 days): 52%; partial response (PC-3 cells [2]; Group 5: 0.5 units Bleomycin, 6 needle array, 0.50 cm, 559 V, 6×100 μs pulses, 1 of 6 animals, 67 days): 17%; complete response (PC-3 cells [2]; Group 5: 0.5 units Bleomycin, 6 needle array, 0.50 cm, 559 V, 6×100 μs pulses, 5 of 6 animals, 67 days): 83%; partial response (PC-3 cells [2]; Group 6: 0.5 units Bleomycin, 4 needle array, 0.87 cm, 1500V, 4×100 μs pulses, 1 of 8 animals, 67 days): 12%; death (PC-3 cells [2]; Group 6: 0.5 units Bleomycin, 4 needle array, 0.87 cm, 1500V, 4×100 μs pulses, 2 of 8 animals): 25%; complete response (PC-3 cells [2]; Group 6: 0.5 units Bleomycin, 4 needle array, 0.87 cm, 1500V, 4×100 μs pulses, 5 of 8 animals, 67 days): 63%; ECG, electrical rhythm of the heart (prostate; [4]): no effect on the electrical rhythm of the heart; clinical disturbances of the cardiac rhythm (prostate; [4]): no clinical disturbances of the cardiac rhythm were observed; muscular contractions (prostate; during the electroporation pulses): muscular contractions were observed; acute local or adverse reactions (prostate; intraprostatic Bleomycin plus electroporation): No acute local or adverse reactions; injection site finding (prostate; intraprostatic Bleomycin plus electroporation, persisted for the duration of the study): Small hematomas were evident at the injection site; gross examination of prostate, perineum and surrounding tissues (prostate; one hour after electroporation): no findings except for the hematomas on the prostate surface; necrosis of epithelial cells in the glandular portion of the prostate (prostate; one hour after electroporation): Necrosis occurred in the epithelial cells; necrosis of the supporting stroma (prostate; one hour after electroporation): No necro-sis of the supporting stroma was observed; histological tissue findings in the prostate gland (prostate; one hour after electroporation, multifocal in distribution pattern): hemorrhage, edema, and necrosis, which were mild in severity; log P [3]: very negative; diffusion into a tumor cell (tumor cell): diffuse very slowly into a tumor cell; penetration of the membranes of certain cancer cells (tumor cell; without electroporation): normally cannot penetrate the membranes of certain cancer cells effectively

Question: For `N.N.[Cl][Pt][Cl]` [Cisplatin], which “cell susceptibility with electroporation” value (PC-3 cells [1]) is on record?
Answer: electroporation enhances cell susceptibility

Question: And the IC50 (PC-3 cells [1]; read-out: IC50 no electroporation, no electroporation, 20 hours after treatment)?
Answer: 50 µM

Question: And the IC50 (PC-3 cells [1]; read-out: IC50 with electroporation, with electroporation, 6 pulses, 99 μs, 400-600 V, 0.5 cm needle array, 20 hours after treatment)?
Answer: 10 µM
